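1) Cells in 96-well plates. 2) Compound, 48 h, 5 concentrations. 3) Linear interpolation between surrounding doses. 4) Unreached endpoint = highest concentration. GI50: concentration for 50% inhibition of growth.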 The source made the active and inactive calls. Rule as the data show it: active = GI50 up to about 1.1 µM and inactive = higher.
How the values were obtained:
Experiment in all cases: NCI-60 cell line screen, 48 h
A498 = tested on: A498
A549 = tested on: A549
CCRF-CEM = tested on: CCRF-CEM
HCC 2998 = tested on: HCC 2998
HT-29 = tested on: HT-29
Hs-578T = tested on: Hs-578T
IGROV-1 = tested on: IGROV-1
MOLT-4 = tested on: MOLT-4
NCI-H226 = tested on: NCI-H226
NCI-H23 = tested on: NCI-H23
NCI-H460 = tested on: NCI-H460
SF-295 = tested on: SF-295
SK-MEL-5 = tested on: SK-MEL-5
SR = tested on: SR
SW-620 = tested on: SW-620
TK-10 = tested on: TK-10
U-251 = tested on: U-251
UO-31 = tested on: UO-31
Malme-3M = tested on: Malme-3M

| SMILES | GI50 (A498) | GI50 (A549) | GI50 (CCRF-CEM) | GI50 (HCC 2998) | GI50 (HT-29) | GI50 (Hs-578T) | GI50 (IGROV-1) | GI50 (MOLT-4) | GI50 (NCI-H226) | GI50 (NCI-H23) | GI50 (NCI-H460) | GI50 (SF-295) | GI50 (SK-MEL-5) | GI50 (SR) | GI50 (SW-620) | GI50 (TK-10) | GI50 (U-251) | GI50 (UO-31) | GI50 (Malme-3M) |
| --- | --- | --- | --- | --- | --- | --- | --- | --- | --- | --- | --- | --- | --- | --- | --- | --- | --- | --- | --- |
| CN(C)Cc1cc(C(=O)/C=C/c2ccc(O)cc2)cc(CN(C)C)c1O | 31.8 µM (inactive) | > 100 µM (inactive) | 24.8 µM (inactive) | 79.4 µM (inactive) | 79.3 µM (inactive) | 60.5 µM (inactive) | 45.4 µM (inactive) | 26.7 µM (inactive) | > 100 µM (inactive) | 79.6 µM (inactive) | 23.7 µM (inactive) | 86.3 µM (inactive) | 18.5 µM (inactive) | 23.1 µM (inactive) | 39.4 µM (inactive) | 53.7 µM (inactive) | 16 µM (inactive) | 63 µM (inactive) |  |
| CC(O[Si](c1ccccc1)(c1ccccc1)C(C)(C)C)[C@H](NC(=O)OC(C)(C)C)C(=O)O[Si](c1ccccc1)(c1ccccc1)C(C)(C)C (stereo not given in full) | > 10 µM (inactive) | 11 µM (inactive) | 20 µM (inactive) | 15.9 µM (inactive) | 11.7 µM (inactive) | 19.2 µM (inactive) | 14.9 µM (inactive) | 10.6 µM (inactive) |  | 11.7 µM (inactive) | 11.5 µM (inactive) | 8.04 µM (inactive) | 15.7 µM (inactive) | 12.3 µM (inactive) | 16.1 µM (inactive) | 16.9 µM (inactive) | 14.4 µM (inactive) | 13.2 µM (inactive) | 16.5 µM (inactive) |
| Clc1ccc(-c2nnc(C34CC5CC(CC(C5)C3)C4)o2)cc1 | > 100 µM (inactive) | > 100 µM (inactive) | > 100 µM (inactive) | > 100 µM (inactive) | > 100 µM (inactive) | > 100 µM (inactive) | > 100 µM (inactive) | > 100 µM (inactive) | > 100 µM (inactive) | > 100 µM (inactive) | > 100 µM (inactive) | > 100 µM (inactive) | > 100 µM (inactive) | > 100 µM (inactive) | > 100 µM (inactive) |  | > 100 µM (inactive) | 3.78 µM (inactive) | > 100 µM (inactive) |
| Nc1ccc(S(=O)(=O)NCc2nccs2)cc1 | 17.7 µM (inactive) | 27.9 µM (inactive) | 18.2 µM (inactive) |  | 16.7 µM (inactive) | 27.3 µM (inactive) | 23.4 µM (inactive) | 23.2 µM (inactive) | 22.2 µM (inactive) | 22.4 µM (inactive) | 26.5 µM (inactive) | 32 µM (inactive) | 15.8 µM (inactive) | 31 µM (inactive) | 30.5 µM (inactive) | 22.2 µM (inactive) | 21.8 µM (inactive) | 22.3 µM (inactive) |  |
| NCCCCN(CCCN)C(=O)OCc1ccccc1 | > 100 µM (inactive) | > 100 µM (inactive) | > 100 µM (inactive) | > 100 µM (inactive) | > 100 µM (inactive) | > 100 µM (inactive) | > 100 µM (inactive) | > 100 µM (inactive) | > 100 µM (inactive) | > 100 µM (inactive) | > 100 µM (inactive) | > 100 µM (inactive) | > 100 µM (inactive) | > 100 µM (inactive) | > 100 µM (inactive) | > 100 µM (inactive) | > 100 µM (inactive) | > 100 µM (inactive) |  |
| Cc1nc2ccc(NC(=S)Nc3ccccc3)cc2c(=O)n1-c1ccccc1 | > 100 µM (inactive) |  |  | 66.4 µM (inactive) | > 100 µM (inactive) | > 100 µM (inactive) | > 100 µM (inactive) | 48.9 µM (inactive) | > 100 µM (inactive) | > 100 µM (inactive) | 24.2 µM (inactive) | > 100 µM (inactive) | 51.3 µM (inactive) | > 100 µM (inactive) | 76.7 µM (inactive) | > 100 µM (inactive) | 57.7 µM (inactive) | > 100 µM (inactive) | > 100 µM (inactive) |
| COC(=O)c1c(CC(Cc2ccc3c(c2)CCCC3)C(=O)OC)ccc2c1CCCC2 (stereo not given) | > 100 µM (inactive) | 37 µM (inactive) | 35.4 µM (inactive) | 23.1 µM (inactive) | 24.4 µM (inactive) | > 100 µM (inactive) | > 100 µM (inactive) | 27.2 µM (inactive) |  | 69.5 µM (inactive) | 88.5 µM (inactive) | > 100 µM (inactive) | 29.4 µM (inactive) | 34.7 µM (inactive) | > 100 µM (inactive) | > 100 µM (inactive) | 98.2 µM (inactive) | 82.8 µM (inactive) | 38 µM (inactive) |
| COC(=O)c1c2c(cc3c1CC1(Cc4cc5c(c(C=O)c4C1)CCCC5)C3)CCCC2 (stereo not given) | 66.8 µM (inactive) | 33.5 µM (inactive) |  | 39 µM (inactive) | 51.3 µM (inactive) | 29.2 µM (inactive) | 81.5 µM (inactive) | 55.1 µM (inactive) | 80 µM (inactive) | 57.9 µM (inactive) |  | > 100 µM (inactive) | 71.4 µM (inactive) | 36.8 µM (inactive) |  | 97.9 µM (inactive) | 43.8 µM (inactive) | 0.103 µM (active) | > 100 µM (inactive) |
